pIC50: −log10 of the molar value.
What was measured:
[1] = target: T1, Muscarinic acetylcholine receptor M1 (Rattus norvegicus, UniProt P08482); experiment: Binding activity against muscarinic acetylcholine receptor M1 in rat brain, using [3H]OXO-M as the radioligand.; type: tissue-based
T1 sequence (P08482 whole entry): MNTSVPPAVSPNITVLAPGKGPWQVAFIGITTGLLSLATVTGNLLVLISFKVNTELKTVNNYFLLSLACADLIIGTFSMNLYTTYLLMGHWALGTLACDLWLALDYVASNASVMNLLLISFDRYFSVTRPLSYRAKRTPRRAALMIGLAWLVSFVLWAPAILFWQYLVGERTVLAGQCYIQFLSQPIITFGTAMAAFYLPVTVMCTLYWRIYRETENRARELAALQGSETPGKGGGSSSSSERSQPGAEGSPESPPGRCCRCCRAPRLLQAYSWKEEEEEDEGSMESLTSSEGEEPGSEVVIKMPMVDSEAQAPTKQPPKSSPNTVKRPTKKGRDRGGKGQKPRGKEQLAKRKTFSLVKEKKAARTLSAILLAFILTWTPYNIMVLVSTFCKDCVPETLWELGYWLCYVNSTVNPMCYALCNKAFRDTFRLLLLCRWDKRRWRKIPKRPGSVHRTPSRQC

A9 = experiment: Stimulating PI (phosphoinositol) hydrolysis in A9L-m1 cells.; type: functional, Mus musculus
Mus musculus [2] = experiment: Effect on salivation in mice, after intraperitoneal administration of 10 mg/kg, activity expressed as a score using a scale of 0-2.; type: functional
[3] = target: T1, Muscarinic acetylcholine receptor M1; experiment: Binding activity against muscarinic acetylcholine receptor M1 in rat brain, using [3H]-Pz as the radioligand.; type: tissue-based
Mus musculus [4] = experiment: Minimum effective dose after ip administration, to stimulate salivation in mice; type: functional; conditions: read-out: MED

| Structure (SMILES) | pIC50 [1] | Max (A9) [%] | Score (Mus musculus [2]) | pIC50 [3] | minimal effective dose (Mus musculus [4]) [mg/kg] |
| --- | --- | --- | --- | --- | --- |
| CCCCOc1nccnc1C1CN2CCC1CC2 (stereo not given) | 8.30 | 15 | 0 | 8.00 |  |
| CCCCCCSc1nccnc1C1CN2CCC1CC2 (stereo not given) | 8.70 | 16 | 0 | 8.66 |  |
| CCCCCSc1nccnc1C1CN2CCC1CC2 (stereo not given) | 9.15 | 7 | 0 | 8.96 |  |
| Cc1nccnc1C1CN2CCC1CC2 (stereo not given) | 7.64 | 4 | 2 | 7.10 | 3 |
| CCCCCCOc1nccnc1[C@@H]1CN2CCC1CC2 | 8.60 | 33 | 0 | 8.43 |  |
| CCCCCCOc1nccnc1[C@H]1CN2CCC1C2 (stereo not given in full) | 8.25 | 40 | 1.6 | 8.15 | 1 |
| CCOc1nccnc1C1CN2CCC1CC2 (stereo not given) | 7.64 | 1 | 0 | 7.42 |  |
| CCCCSc1nccnc1C1CN2CCC1CC2 (stereo not given) | 9.30 | 5 | 0 | 9.40 |  |
| c1cnc(C2CN3CCC2CC3)cn1 (stereo not given) | 8.40 | 80 | 1.4 | 7.13 | 0.1 |
| C[N+](C)(C)CC#CCOC(=O)Nc1cccc(Cl)c1.[Cl-] |  | 52 |  |  |  |
| COC(=O)C1=CCCN(C)C1 [ARECOLINE] |  | 73 | 0 |  |  |
| CCCCCCOc1nccnc1[C@H]1CN2CCCC1C2 (stereo not given in full) | 8.40 | 12 | 0 | 8.60 |  |
| CCCCCCOc1nccnc1[C@H]1CN2CCC1CC2 | 7.95 | 46 | 0 | 7.97 |  |
| CCCCCOc1nccnc1C1CN2CCC1CC2 (stereo not given) | 8.22 | 32 | 0.2 | 8.15 |  |
| Clc1cncc(C2CN3CCC2CC3)n1 (stereo not given) | 8.34 | 8 | 1 | 8.33 | 3 |
| CCCCCCOc1nsnc1C1=CCCN(C)C1 [XANOMELINE] |  | 55 | 0 |  |  |
| CCCCCCOc1nccnc1C1=CCCCN(C)C1 | 6.93 | 2 | 0 | 7.59 |  |
| Clc1nccnc1C1CN2CCC1CC2 (stereo not given) | 7.25 | 13 | 1.2 | 6.74 | 10 |
| CCCOc1nccnc1C1CN2CCC1CC2 (stereo not given) | 8.05 | 4 | 0 | 7.72 |  |
| COc1nccnc1C1CN2CCC1CC2 (stereo not given) | 7.14 | 1 | 0 | 6.95 |  |
| CCCCCCOc1nccnc1[C@@H]1CN2CCCC1C2 (stereo not given in full) | 6.74 | 4 | 0 | 6.92 |  |
| CCCCCCOc1nccnc1C1CN2CCC1CC2 (stereo not given) | 8.35 | 40 | 0 | 8.22 |  |
| CCCCCCOc1nccnc1[C@@H]1CN2CCC1C2 (stereo not given in full) | 7.34 | 31 | 0.6 | 7.24 |  |
| CCCCCCOc1nccnc1C1=CCCCNC1 | 6.78 | 5 | 0 | 7.36 |  |
| CCCCCCOc1nccnc1C1=CCCN(C)C1 |  | 12 | 0 |  |  |
| CCCCCCCOc1nccnc1C1CN2CCC1CC2 (stereo not given) | 8.00 | 35 | 0 | 7.89 |  |
